Data published in the NIST ThermoML archive (doi:10.1016/j.jct.2016.09.022).
Numbers after ± are expanded uncertainties.

Key:
[1] = refractive index (Na D-line) (dimensionless); conditions: 298.15 K; 101.33 kPa; Liquid; Standard Abbe refractometry
[2] = Liquid; for speed of sound: Frequency=1.5 MHz, Single path-length method; for mass density: 298.15 K, 101.33 kPa, Vibrating tube method

CCCCCC [hexane]
Conditions | mass density [kg/m3] | refractive index
[1] | – | 1.3723 ± 0.0028
[2] | 654.9 ± 1.3 | –

speed of sound [m/s], [2]
Conditions | 283.15 K | 293.15 K | 303.15 K | 313.15 K | 323.15 K | 333.15 K | 343.15 K
100 kPa | 1147.3 ± 2.5 | 1102.8 ± 2.5 | 1056.2 ± 2.4 | 1011.6 ± 2.3 | 966.77 ± 2.2 | 923.14 ± 2.1 | –
105 kPa | – | – | – | – | – | – | 877.65 ± 2.1
5100 kPa | 1183.8 ± 2.9 | 1141.9 ± 2.9 | 1097.9 ± 2.9 | 1055.9 ± 2.9 | 1013.6 ± 2.9 | 972.45 ± 2.9 | 931.79 ± 2.9
10100 kPa | 1218.6 ± 3 | 1177.2 ± 2.9 | 1135.8 ± 2.9 | 1096.4 ± 2.8 | 1056.7 ± 2.8 | 1017.2 ± 2.8 | 977.66 ± 2.8
20100 kPa | 1283.2 ± 3 | 1243.4 ± 3 | 1204.4 ± 2.9 | 1167.8 ± 2.9 | 1131.8 ± 2.9 | 1096.3 ± 2.8 | 1060.6 ± 2.8
30100 kPa | 1339.6 ± 3.1 | 1302.4 ± 3 | 1266.5 ± 3 | 1231.8 ± 2.9 | 1197.6 ± 2.9 | 1164 ± 2.9 | 1131.3 ± 2.8
40100 kPa | 1391.9 ± 3.1 | 1356 ± 3.1 | 1321.9 ± 3 | 1289.3 ± 3 | 1256.9 ± 2.9 | 1225.4 ± 2.9 | 1194.6 ± 2.9
50100 kPa | 1440.2 ± 3.2 | 1405.9 ± 3.1 | 1373.7 ± 3.1 | 1341.4 ± 3 | 1311 ± 3 | 1280.6 ± 3 | 1252.1 ± 2.9
60100 kPa | 1484.8 ± 3.2 | 1452.3 ± 3.2 | 1421.1 ± 3.1 | 1390.3 ± 3.1 | 1361.3 ± 3.1 | 1331.7 ± 3 | 1304.4 ± 3
70100 kPa | 1526.9 ± 3.3 | 1495.6 ± 3.3 | 1464.4 ± 3.2 | 1435.6 ± 3.2 | 1408.2 ± 3.1 | 1380.5 ± 3.1 | 1354.1 ± 3
80100 kPa | 1566.5 ± 3.4 | 1536.7 ± 3.3 | 1508.3 ± 3.3 | 1478.3 ± 3.2 | 1451.5 ± 3.2 | 1425.6 ± 3.1 | 1400.1 ± 3.1
90100 kPa | 1604.6 ± 3.5 | 1575.4 ± 3.4 | 1548 ± 3.4 | 1519.6 ± 3.3 | 1493 ± 3.3 | 1467.5 ± 3.2 | 1442.2 ± 3.2
95100 kPa | 1622.6 ± 3.5 | 1594.1 ± 3.4 | 1567.1 ± 3.4 | 1539.5 ± 3.3 | 1512.6 ± 3.3 | 1487.5 ± 3.2 | 1463.4 ± 3.2

CCO [ethanol]
Conditions | mass density [kg/m3] | refractive index
[1] | – | 1.3593 ± 0.0027
[2] | 785.1 ± 1.6 | –

speed of sound [m/s], [2]
Conditions | 283.15 K | 293.15 K | 303.15 K | 313.15 K | 323.15 K | 333.15 K | 343.15 K
100 kPa | 1198.8 ± 2.4 | 1163.8 ± 2.4 | 1129.3 ± 2.3 | 1094.7 ± 2.2 | 1060.4 ± 2.1 | 1027 ± 2.1 | 992.92 ± 2
5100 kPa | 1227.7 ± 2.7 | 1193.5 ± 2.7 | 1159.8 ± 2.6 | 1127.7 ± 2.6 | 1094.5 ± 2.6 | 1062.7 ± 2.5 | 1030.2 ± 2.5
10100 kPa | 1255.7 ± 2.7 | 1222.5 ± 2.7 | 1189.8 ± 2.6 | 1157.4 ± 2.6 | 1126.5 ± 2.6 | 1096.3 ± 2.5 | 1065.8 ± 2.5
20100 kPa | 1306.5 ± 2.8 | 1275.6 ± 2.8 | 1245 ± 2.7 | 1214.7 ± 2.7 | 1185.2 ± 2.6 | 1156.9 ± 2.6 | 1129 ± 2.6
30100 kPa | 1353.1 ± 2.9 | 1323.7 ± 2.8 | 1295 ± 2.8 | 1266.5 ± 2.7 | 1238.8 ± 2.7 | 1212.1 ± 2.6 | 1185.8 ± 2.6
40100 kPa | 1397 ± 2.9 | 1368.7 ± 2.9 | 1340.6 ± 2.8 | 1313.5 ± 2.8 | 1287.5 ± 2.7 | 1262.3 ± 2.7 | 1237.5 ± 2.7
50100 kPa | 1437.9 ± 3 | 1410.7 ± 2.9 | 1384.2 ± 2.9 | 1358.2 ± 2.9 | 1332.4 ± 2.8 | 1310.5 ± 2.8 | 1284.9 ± 2.7
60100 kPa | 1476.1 ± 3 | 1449.9 ± 3 | 1424.6 ± 3 | 1399.1 ± 2.9 | 1374.8 ± 2.9 | 1351.2 ± 2.8 | 1328.8 ± 2.8
70100 kPa | 1512.5 ± 3.1 | 1486.8 ± 3.1 | 1462.7 ± 3 | 1438.4 ± 3 | 1414.7 ± 2.9 | 1391.9 ± 2.9 | 1370.2 ± 2.9
80100 kPa | 1547.2 ± 3.2 | 1522.1 ± 3.1 | 1498.1 ± 3.1 | 1475.7 ± 3 | 1452 ± 3 | 1429.6 ± 3 | 1409.5 ± 2.9
90100 kPa | 1580.2 ± 3.2 | 1555.7 ± 3.2 | 1532.5 ± 3.1 | 1510.1 ± 3.1 | 1487.5 ± 3.1 | 1466.1 ± 3 | 1446.3 ± 3
95100 kPa | 1596.1 ± 3.3 | 1571.8 ± 3.2 | 1549.3 ± 3.2 | 1526.4 ± 3.1 | 1504.5 ± 3.1 | 1483.5 ± 3.1 | 1464.1 ± 3
